Laboratory results as given in the NIST ThermoML archive (doi:10.1021/je9003959).

Assay: refractive index (Na D-line) (dimensionless); xn = mol fraction of the nth substance listed
Settings: 101 kPa, Liquid, Standard Abbe refractometry

CCN1CCCC1=O [1-ethyl-2-pyrrolidinone] + O
refractive index
Settings	293 K	298 K	303 K	313 K	323 K
x1 = 0.022	1.35197	1.35144	1.34954	1.3488	1.34707
x1 = 0.05	1.37085	1.37012	1.3694	1.36692	1.36431
x1 = 0.1	1.39584	1.39478	1.39291	1.39022	1.38757
x1 = 0.2	1.42603	1.42432	1.42304	1.41887	1.41711
x1 = 0.3	1.44127	1.43983	1.43715	1.4331	1.42913
x1 = 0.4	1.44975	1.44776	1.44605	1.4418	1.43762
x1 = 0.5	1.4551	1.45307	1.45147	1.44694	1.44273
x1 = 0.6	1.45859	1.45647	1.45435	1.45035	1.44622
x1 = 0.7	1.46118	1.459	1.4568	1.4527	1.44864
x1 = 0.8	1.46326	1.46096	1.4586	1.45496	1.45075
x1 = 0.9	1.46478	1.4623	1.46016	1.45641	1.45217
x1 = 1	1.46461	1.46192	1.45791	1.45415	1.45147
